Measurements: patent US7888363B2, “Viral polymerase inhibitors” (Boehringer Ingelheim International GmbH, priority 2003, dated 2011)

These compounds were tested against hepatitis C virus RNA dependant polymerase (NS5B) (Hepatitis C virus genotype 1b, UniProt P26663) (assay: Inhibition of NS5B RNA dependent RNA polymerase activity). Details: Table 1; HCV NS5B polymerase.
Format: biochemical
Experimental: A suitable assay is described in the examples.
Inhibition of NS5B RNA Dependent RNA Polymerase Activity
The compounds of the invention were tested for inhibitory activity against the hepatitis C virus RNA dependant polymerase (NS5B), according to protocol described in WO 03/010141

hepatitis C virus RNA dependant polymerase (NS5B), sequence (P26663 2420-3010): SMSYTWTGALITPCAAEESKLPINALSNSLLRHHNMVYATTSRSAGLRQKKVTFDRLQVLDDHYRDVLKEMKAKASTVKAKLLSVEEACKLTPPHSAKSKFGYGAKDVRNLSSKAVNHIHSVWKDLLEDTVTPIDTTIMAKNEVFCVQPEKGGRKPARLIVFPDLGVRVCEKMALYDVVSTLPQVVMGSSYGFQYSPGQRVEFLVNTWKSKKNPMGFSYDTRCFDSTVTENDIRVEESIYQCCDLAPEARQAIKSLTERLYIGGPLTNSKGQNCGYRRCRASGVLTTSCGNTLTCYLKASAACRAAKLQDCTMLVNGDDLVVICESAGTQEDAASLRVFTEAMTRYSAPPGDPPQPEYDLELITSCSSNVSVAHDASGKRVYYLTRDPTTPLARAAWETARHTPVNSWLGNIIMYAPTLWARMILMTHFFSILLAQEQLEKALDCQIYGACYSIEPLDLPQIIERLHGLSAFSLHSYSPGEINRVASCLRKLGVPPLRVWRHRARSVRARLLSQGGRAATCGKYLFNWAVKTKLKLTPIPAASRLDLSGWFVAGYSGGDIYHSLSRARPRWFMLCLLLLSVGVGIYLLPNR

IC50, 200 to 1000 nM:
O=C(Cn1c(-c2ccoc2)c(C2CCCCC2)c2ccc(C(=O)O)cc21)Nc1ccccc1 [Example 1060], O=C(Cn1c(-c2ccoc2)c(C2CCCCC2)c2ccc(C(=O)O)cc21)Nc1ccc(C(=O)O)cc1 [Example 1061], CNC(=O)Cn1c(-c2ccoc2)c(C2CCCCC2)c2ccc(C(=O)O)cc21 [Example 1062], O=C(Cn1c(-c2ccoc2)c(C2CCCCC2)c2ccc(C(=O)O)cc21)NCc1ccccc1 [Example 1063], NC(=O)Cn1c(-c2ccoc2)c(C2CCCCC2)c2ccc(C(=O)O)cc21 [Example 1065], NS(=O)(=O)c1ccc(CNC(=O)Cn2c(-c3ccoc3)c(C3CCCCC3)c3ccc(C(=O)O)cc32)cc1 [Example 1069], O=C(Cn1c(-c2ccoc2)c(C2CCCCC2)c2ccc(C(=O)O)cc21)Nc1cccc(C(=O)O)c1 [Example 1070], O=C(O)/C=C/c1ccc(NC(=O)Cn2c(-c3ccoc3)c(C3CCCCC3)c3ccc(C(=O)O)cc32)cc1 [Example 1071], CC(C)(NC(=O)Cn1c(-c2ccccn2)c(C2CCCCC2)c2ccc(C(=O)O)cc21)C(=O)Nc1ccc(/C=C/C(=O)O)cc1 [Example 1083], O=C(O)c1ccc2c(C3CCCCC3)c(-c3ccccn3)n(CC(=O)N3CCCC3)c2c1 [Example 1084], O=C(O)c1ccc2c(C3CCCCC3)c(-c3ccccn3)n(CC(=O)N3CCCCC3)c2c1 [Example 1085], O=C(O)c1ccc2c(C3CCCC3)c(-c3ccccn3)n(CC(=O)N3CCCC3)c2c1 [Example 1086], O=C(O)c1ccc2c(C3CCCC3)c(-c3ccccn3)n(CC(=O)N3CCCCC3)c2c1 [Example 1087], O=C(Cn1c(-c2ccoc2)c(C2CCCCC2)c2ccc(C(=O)O)cc21)NC1CCCCC1 [Example 1088], O=C(Cn1c(-c2ccoc2)c(C2CCCCC2)c2ccc(C(=O)O)cc21)NCC1CCCCC1 [Example 1089], CC(C)N(C(=O)Cn1c(-c2ccoc2)c(C2CCCCC2)c2ccc(C(=O)O)cc21)C1CCCCC1 [Example 1091], CCN(C(=O)Cn1c(-c2ccoc2)c(C2CCCCC2)c2ccc(C(=O)O)cc21)C1CCCCC1 [Example 1093], O=C(O)c1ccc2c(C3CCCCC3)c(-c3ccoc3)n(CC(=O)N3CCN(c4ccccc4)CC3)c2c1 [Example 1095], CC1CCN(C(=O)Cn2c(-c3ccoc3)c(C3CCCCC3)c3ccc(C(=O)O)cc32)CC1 [Example 1101], CN(C)c1ccc(NC(=O)Cn2c(-c3ccoc3)c(C3CCCCC3)c3ccc(C(=O)O)cc32)cc1 [Example 1105], CC(C)NC(=O)Cn1c(-c2ccoc2)c(C2CCCCC2)c2ccc(C(=O)O)cc21 [Example 1106], COCCNC(=O)Cn1c(-c2ccoc2)c(C2CCCCC2)c2ccc(C(=O)O)cc21 [Example 1107], CC(C)N(C(=O)Cn1c(-c2ccoc2)c(C2CCCCC2)c2ccc(C(=O)O)cc21)C(C)C [Example 1108], O=C(O)CN(Cc1ccccc1)C(=O)Cn1c(-c2ccoc2)c(C2CCCCC2)c2ccc(C(=O)O)cc21 [Example 1109], O=C(Cn1c(-c2ccoc2)c(C2CCCCC2)c2ccc(C(=O)O)cc21)NCC1CCCO1 (centres unmarked) [Example 1113], CN(Cc1cccnc1)C(=O)Cn1c(-c2ccoc2)c(C2CCCCC2)c2ccc(C(=O)O)cc21 [Example 1114], O=C(Cc1ccccc1)NNC(=O)Cn1c(-c2ccoc2)c(C2CCCCC2)c2ccc(C(=O)O)cc21 [Example 1117], O=C(O)c1ccc2c(C3CCCCC3)c(-c3ccoc3)n(CC(=O)N3CCC[C@@H]3C(=O)O)c2c1 [Example 1123], COCCN(C)C(=O)Cn1c(-c2ccoc2)c(C2CCCCC2)c2ccc(C(=O)O)cc21 [Example 1124]

IC50, 1000 to 10000 nM:
COc1ccc(CNC(=O)Cn2c(-c3ccoc3)c(C3CCCCC3)c3ccc(C(=O)O)cc32)cc1 [Example 1064], Cc1ccccc1N(C)C(=O)Cn1c(-c2ccoc2)c(C2CCCCC2)c2ccc(C(=O)O)cc21 [Example 1115]

IC50, < 200 nM:
NC(=O)[C@@H]1CCCN1C(=O)Cn1c(-c2ccoc2)c(C2CCCCC2)c2ccc(C(=O)O)cc21 [Example 1057], O=C(O)c1ccc2c(C3CCCCC3)c(-c3ccoc3)n(CC(=O)N3CCC(C(=O)O)CC3)c2c1 [Example 1058], O=C(Cn1c(-c2ccoc2)c(C2CCCCC2)c2ccc(C(=O)O)cc21)NNC(=O)c1ccncc1 [Example 1059], O=C(O)c1ccc2c(C3CCCCC3)c(-c3ccoc3)n(CC(=O)N3CCC[C@H]3C(=O)O)c2c1 [Example 1066], O=C(O)CNC(=O)Cn1c(-c2ccoc2)c(C2CCCCC2)c2ccc(C(=O)O)cc21 [Example 1067], O=C(O)CNNC(=O)Cn1c(-c2ccoc2)c(C2CCCCC2)c2ccc(C(=O)O)cc21 [Example 1068], CN(CC(=O)O)C(=O)Cn1c(-c2ccoc2)c(C2CCCCC2)c2ccc(C(=O)O)cc21 [Example 1072], O=C(O)CCNC(=O)Cn1c(-c2ccoc2)c(C2CCCCC2)c2ccc(C(=O)O)cc21 [Example 1073], O=C(O)CN1CCN(C(=O)Cn2c(-c3ccoc3)c(C3CCCCC3)c3ccc(C(=O)O)cc32)CC1 [Example 1074], O=C(Cn1c(-c2ccoc2)c(C2CCCCC2)c2ccc(C(=O)O)cc21)NCc1ccc(C(=O)O)cc1 [Example 1075], O=C(Cn1c(-c2ccoc2)c(C2CCCCC2)c2ccc(C(=O)O)cc21)NNC(=O)NC[C@H]1CC[C@H](C(=O)O)CC1 [Example 1076], O=C(O)/C=C/c1ccc(NC(=O)[C@]2(NC(=O)Cn3c(-c4ccoc4)c(C4CCCCC4)c4ccc(C(=O)O)cc43)CCNC2)cc1 [Example 1077], O=C(O)/C=C/c1ccc(NC(=O)[C@@]2(NC(=O)Cn3c(-c4ccoc4)c(C4CCCCC4)c4ccc(C(=O)O)cc43)CCNC2)cc1 [Example 1079], O=C(O)/C=C/c1ccc(NC(=O)C2(NC(=O)Cn3c(-c4ccoc4)c(C4CCCCC4)c4ccc(C(=O)O)cc43)CCNCC2)cc1 [Example 1080], O=C(Cn1c(-c2ccoc2)c(C2CCCCC2)c2ccc(C(=O)O)cc21)N[C@@H](Cc1c[nH]c2ccc(O)cc12)C(=O)O [Example 1081], CN1CCN(C(=O)Cn2c(-c3ccccn3)c(C3CCCCC3)c3ccc(C(=O)O)cc32)CC1 [Example 1082], CN(CCO)C(=O)Cn1c(-c2ccoc2)c(C2CCCCC2)c2ccc(C(=O)O)cc21 [Example 1090], CN(C(=O)Cn1c(-c2ccoc2)c(C2CCCCC2)c2ccc(C(=O)O)cc21)C1CCCCC1 [Example 1092], O=C(O)c1ccc2c(C3CCCCC3)c(-c3ccoc3)n(CC(=O)N3CCCC3)c2c1 [Example 1094], O=C(O)c1ccc2c(C3CCCCC3)c(-c3ccoc3)n(CC(=O)N3CCN(CCO)CC3)c2c1 [Example 1096], O=C(O)c1ccc2c(C3CCCCC3)c(-c3ccoc3)n(CC(=O)N3CCOCC3)c2c1 [Example 1097], O=C(O)c1ccc2c(C3CCCCC3)c(-c3ccoc3)n(CC(=O)N3CCCC(C(=O)O)C3)c2c1 (centres unmarked) [Example 1099], O=C(O)c1ccc2c(C3CCCCC3)c(-c3ccoc3)n(CC(=O)N3CCC(O)CC3)c2c1 [Example 1100], O=C(O)c1ccc2c(C3CCCCC3)c(-c3ccoc3)n(CC(=O)N3CCC(CCO)CC3)c2c1 [Example 1102], CN(CCc1ccccn1)C(=O)Cn1c(-c2ccoc2)c(C2CCCCC2)c2ccc(C(=O)O)cc21 [Example 1103], CN1CCC(N(C)C(=O)Cn2c(-c3ccoc3)c(C3CCCCC3)c3ccc(C(=O)O)cc32)CC1 [Example 1104], CC(=O)NNC(=O)Cn1c(-c2ccoc2)c(C2CCCCC2)c2ccc(C(=O)O)cc21 [Example 1110], CN(C)C(=O)Cn1c(-c2ccoc2)c(C2CCCCC2)c2ccc(C(=O)O)cc21 [Example 1111], CN(C)CCN(C)C(=O)Cn1c(-c2ccoc2)c(C2CCCCC2)c2ccc(C(=O)O)cc21 [Example 1112], O=C(O)c1ccc2c(C3CCCCC3)c(-c3ccoc3)n(CC(=O)N3CCC(N4CCCC4)CC3)c2c1 [Example 1116], CC(C)N(C)C(=O)Cn1c(-c2ccoc2)c(C2CCCCC2)c2ccc(C(=O)O)cc21 [Example 1118], CCC(NC(=O)Cn1c(-c2ccoc2)c(C2CCCCC2)c2ccc(C(=O)O)cc21)C(=O)O (centres unmarked) [Example 1119], CCN1CCN(C(=O)Cn2c(-c3ccoc3)c(C3CCCCC3)c3ccc(C(=O)O)cc32)CC1 [Example 1120], CN(C)C(=O)CN(C)C(=O)Cn1c(-c2ccoc2)c(C2CCCCC2)c2ccc(C(=O)O)cc21 [Example 1121], CN(C)C(=O)[C@@H]1CCCN1C(=O)Cn1c(-c2ccoc2)c(C2CCCCC2)c2ccc(C(=O)O)cc21 [Example 1122], CC(C)N1CCN(C(=O)Cn2c(-c3ccoc3)c(C3CCCCC3)c3ccc(C(=O)O)cc32)CC1 [Example 1125], COCCN1CCN(C(=O)Cn2c(-c3ccoc3)c(C3CCCCC3)c3ccc(C(=O)O)cc32)CC1 [Example 1126], CS(=O)(=O)c1ccc(CNC(=O)Cn2c(-c3ccoc3)c(C3CCCCC3)c3ccc(C(=O)O)cc32)cc1 [Example 1127], O=C(O)c1ccc2c(C3CCCCC3)c(-c3ccoc3)n(CC(=O)N3C[C@@H](O)C[C@H]3C(=O)O)c2c1 [Example 1128], CC(C)[C@@H](C(=O)O)N(C)C(=O)Cn1c(-c2ccoc2)c(C2CCCCC2)c2ccc(C(=O)O)cc21 [Example 1129]
